The values below come from ChEMBL document CHEMBL4311986, “Synthesis and biological evaluation of new multi-target 3-(1H-indol-3-yl)pyrrolidine-2,5-dione derivatives with potential antidepressant effect” (Eur J Med Chem, 2019).

In series [1] the test system is Mus musculus. In words: Induction of hypothermia in CD-1 mouse assessed as change in body temperature at 20 mg/kg, ip measured after 120 mins by thermometric method. It is filed as functional, organism-based.
Series [2] has as its system Mus musculus. As to the kind of experiment: Induction of hypothermia in CD-1 mouse assessed as change in body temperature at 15 mg/kg, ip measured after 30 mins by thermometric method (reference value: -0.2 to 0.4 deg C). It counts as functional, organism-based.
In series [3] the test system is Mus musculus. In words: Induction of hypothermia in CD-1 mouse assessed as change in body temperature at 5 mg/kg, ip measured after 60 mins by thermometric method. It is filed as functional, organism-based.
Series [4] has as its system Mus musculus. As to the kind of experiment: Induction of hypothermia in CD-1 mouse assessed as change in body temperature at 15 mg/kg, ip measured after 60 mins by thermometric method (reference value: -0.2 to 0.5 deg C). It is filed as functional, organism-based.
Series [5] concerns Mus musculus. In words: Induction of hypothermia in CD-1 mouse assessed as change in body temperature at 5 mg/kg, ip measured after 90 mins by thermometric method. It is filed as functional, organism-based.
Series [6] concerns Mus musculus. As to the kind of experiment: Induction of hypothermia in CD-1 mouse assessed as change in body temperature at 20 mg/kg, ip measured after 60 mins by thermometric method. It counts as functional, organism-based.
In series [7] the target is T1, hERG (KCNH2) (Homo sapiens, UniProt Q12809). In words: Inhibition of human ERG at 10 uM by automated patch-clamp assay relative to control.
T1 sequence (Q12809 whole entry): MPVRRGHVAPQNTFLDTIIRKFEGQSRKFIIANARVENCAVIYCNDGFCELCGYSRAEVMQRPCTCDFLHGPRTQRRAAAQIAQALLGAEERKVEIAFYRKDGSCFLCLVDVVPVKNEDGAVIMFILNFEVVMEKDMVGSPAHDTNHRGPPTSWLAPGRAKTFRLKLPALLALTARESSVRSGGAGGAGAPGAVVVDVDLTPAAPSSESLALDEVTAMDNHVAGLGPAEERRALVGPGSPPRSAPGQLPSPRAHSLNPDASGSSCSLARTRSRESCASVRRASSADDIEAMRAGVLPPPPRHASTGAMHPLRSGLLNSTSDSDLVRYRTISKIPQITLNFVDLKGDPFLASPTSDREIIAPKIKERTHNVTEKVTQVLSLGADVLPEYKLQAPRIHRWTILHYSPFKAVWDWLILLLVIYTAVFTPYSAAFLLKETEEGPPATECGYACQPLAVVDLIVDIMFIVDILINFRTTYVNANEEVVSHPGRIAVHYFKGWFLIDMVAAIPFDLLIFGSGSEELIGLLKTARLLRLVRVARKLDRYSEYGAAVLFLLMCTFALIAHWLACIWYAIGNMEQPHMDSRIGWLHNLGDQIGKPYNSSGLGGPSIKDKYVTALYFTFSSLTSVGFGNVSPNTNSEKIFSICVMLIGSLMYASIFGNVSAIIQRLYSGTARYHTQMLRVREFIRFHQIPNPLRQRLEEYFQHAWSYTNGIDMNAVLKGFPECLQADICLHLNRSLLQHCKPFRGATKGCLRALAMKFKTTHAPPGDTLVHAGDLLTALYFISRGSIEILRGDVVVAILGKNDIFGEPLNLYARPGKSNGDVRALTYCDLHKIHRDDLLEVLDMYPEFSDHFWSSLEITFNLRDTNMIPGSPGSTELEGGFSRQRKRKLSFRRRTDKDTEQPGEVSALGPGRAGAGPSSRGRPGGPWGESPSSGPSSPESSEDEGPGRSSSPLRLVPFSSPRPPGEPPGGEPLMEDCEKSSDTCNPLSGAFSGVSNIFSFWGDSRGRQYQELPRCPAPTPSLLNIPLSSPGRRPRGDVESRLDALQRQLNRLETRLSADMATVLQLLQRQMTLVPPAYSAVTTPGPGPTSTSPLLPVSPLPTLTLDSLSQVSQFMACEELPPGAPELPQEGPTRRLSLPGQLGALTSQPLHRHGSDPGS
The subject of series [8] is Mus musculus. As to the kind of experiment: Induction of hypothermia in CD-1 mouse assessed as change in body temperature at 5 mg/kg, ip measured after 30 mins by thermometric method. It is filed as functional, organism-based.
For series [9], the system named is Alpha-1 adrenergic receptor (Rattus norvegicus). As to the kind of experiment: Displacement of [3H]-prazosin from rat cortex alpha1 adrenergic receptor incubated for 30 mins by microbeta scintillation counting method.
Series [10] has as its target T1, hERG (KCNH2). As to the kind of experiment: Inhibition of human ERG at 0.1 uM by automated patch-clamp assay relative to control.
Series [11] deals with Mus musculus. As to the kind of experiment: Induction of hypothermia in CD-1 mouse assessed as change in body temperature at 10 mg/kg, ip measured after 120 mins by thermometric method. It is filed as functional, organism-based.
The subject of series [12] is Mus musculus. In words: Induction of hypothermia in CD-1 mouse assessed as change in body temperature at 10 mg/kg, ip pretreated for 60 mins with 5-HT1AR antagonist WAY100635 followed by compound treatment and measured after 30 mins by thermometric method. It counts as functional, organism-based.
In series [13] the test system is Mus musculus. In words: Induction of hypothermia in CD-1 mouse assessed as change in body temperature at 10 mg/kg, ip measured after 90 mins by thermometric method. It counts as functional, organism-based.
The subject of series [14] is Mus musculus. As to the kind of experiment: Induction of hypothermia in CD-1 mouse assessed as change in body temperature at 20 mg/kg, ip measured after 30 mins by thermometric method. It counts as functional, organism-based.
The subject of series [15] is Mus musculus. In words: Induction of hypothermia in CD-1 mouse assessed as change in body temperature at 10 mg/kg, ip measured after 30 mins by thermometric method. It counts as functional, organism-based.
Series [16] concerns Mus musculus. As to the kind of experiment: Induction of hypothermia in CD-1 mouse assessed as change in body temperature at 20 mg/kg, ip measured after 90 mins by thermometric method. It is filed as functional, organism-based.
Series [17] relates to Mus musculus. As to the kind of experiment: Induction of hypothermia in CD-1 mouse assessed as change in body temperature at 15 mg/kg, ip measured after 90 mins by thermometric method (reference value: -0.3 to 0.3 deg C). It counts as functional, organism-based.
Series [18] deals with Mus musculus. In words: Induction of hypothermia in CD-1 mouse assessed as change in body temperature at 5 mg/kg, ip measured after 120 mins by thermometric method. It counts as functional, organism-based.
In series [19] the test system is Mus musculus. As to the kind of experiment: Induction of hypothermia in CD-1 mouse assessed as change in body temperature at 15 mg/kg, ip measured after 120 mins by thermometric method (reference value: -0.1 to 0.3 deg C). It is filed as functional, organism-based.
Series [20] relates to Mus musculus. In words: Induction of hypothermia in CD-1 mouse assessed as change in body temperature at 10 mg/kg, ip pretreated for 30 mins with 5-HT1AR antagonist WAY100635 followed by compound treatment and measured after 30 mins by thermometric method. It is filed as functional, organism-based.
Series [21] has as its system Mus musculus. As to the kind of experiment: Antidepressant-like activity in CD-1 mouse at 10 mg/kg, ip treated for 30 mins and measured for 4 mins by forced swim test.
In series [22] the test system is Mus musculus. In words: Antidepressant-like activity in CD-1 mouse assessed as decrease in immobility time at 10 mg/kg, ip treated for 30 mins and measured for 4 mins by forced swim test. It counts as functional, organism-based.
Series [23] addresses T1, hERG (KCNH2). In words: Inhibition of human ERG at 1 uM by automated patch-clamp assay relative to control.
Series [24] in a line: Half life in human liver microsomes at 1 uM measured for 5 to 30 mins in presence of NADPH by LC-MS/MS analysis. It is filed as ADME, Microsome.
Series [25] deals with Mus musculus. In words: Induction of hypothermia in CD-1 mouse assessed as change in body temperature at 10 mg/kg, ip measured after 60 mins by thermometric method. It counts as functional, organism-based.
Series [26] deals with Mus musculus. As to the kind of experiment: Induction of hypothermia in CD-1 mouse assessed as change in body temperature at 15 mg/kg, ip pretreated for 60 mins with 5-HT1AR antagonist WAY100635 followed by compound treatment and measured after 30 mins by thermometric method (reference value: -0.1 to 0.4 deg C). It is filed as functional, organism-based.
For series [27], the target named is T2, 5-hydroxytryptamine receptor 1A (Homo sapiens, UniProt P08908).
T2 sequence (P08908 whole entry): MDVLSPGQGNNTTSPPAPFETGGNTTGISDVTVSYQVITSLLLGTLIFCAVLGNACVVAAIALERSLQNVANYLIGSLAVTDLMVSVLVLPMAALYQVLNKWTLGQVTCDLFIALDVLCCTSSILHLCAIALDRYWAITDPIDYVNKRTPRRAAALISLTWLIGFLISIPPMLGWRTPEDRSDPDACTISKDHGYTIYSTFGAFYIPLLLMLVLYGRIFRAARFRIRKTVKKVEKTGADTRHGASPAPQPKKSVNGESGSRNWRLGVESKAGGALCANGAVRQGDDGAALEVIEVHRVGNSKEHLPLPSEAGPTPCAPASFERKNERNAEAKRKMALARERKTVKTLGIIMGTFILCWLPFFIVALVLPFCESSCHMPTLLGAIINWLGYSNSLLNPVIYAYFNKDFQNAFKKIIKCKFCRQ
In words: biochemical.

Series [28] has as its system Mus musculus. In words: Induction of hypothermia in CD-1 mouse assessed as change in body temperature at 15 mg/kg, ip pretreated for 30 mins with 5-HT1AR antagonist WAY100635 followed by compound treatment and measured after 30 mins by thermometric method (reference value: -0.1 to 0.1 deg C). It counts as functional, organism-based.
Series [29] addresses 5-hydroxytryptamine receptor 6 (Homo sapiens, UniProt P50406). In words: Displacement of [3H]-LSD from human 5-HT6 receptor expressed in HEK293 cells incubated for 1 hr by liquid scintillation counting method. It counts as cell-based.
For series [30], the target named is 5-hydroxytryptamine receptor 7 (Homo sapiens, UniProt P34969). In words: Displacement of [3H]-5-CT from human 5HT7 receptor expressed in HEK293 cells incubated for 1 hr by liquid scintillation counting method. It is filed as cell-based.
Chain of 5-hydroxytryptamine receptor 7 (P34969 whole entry): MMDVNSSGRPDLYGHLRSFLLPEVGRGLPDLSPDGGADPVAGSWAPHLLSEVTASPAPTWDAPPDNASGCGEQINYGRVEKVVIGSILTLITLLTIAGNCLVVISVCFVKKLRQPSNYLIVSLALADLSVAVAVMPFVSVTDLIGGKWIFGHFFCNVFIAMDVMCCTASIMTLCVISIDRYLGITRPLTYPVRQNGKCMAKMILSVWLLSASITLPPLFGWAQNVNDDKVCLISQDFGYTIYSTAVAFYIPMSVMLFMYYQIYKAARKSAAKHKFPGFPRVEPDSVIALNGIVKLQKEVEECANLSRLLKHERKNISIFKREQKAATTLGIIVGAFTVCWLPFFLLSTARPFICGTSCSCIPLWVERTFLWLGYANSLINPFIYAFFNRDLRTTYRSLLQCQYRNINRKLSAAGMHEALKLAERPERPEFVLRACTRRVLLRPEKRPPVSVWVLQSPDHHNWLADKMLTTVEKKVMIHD
For series [31], the target named is D(2) dopamine receptor (Homo sapiens, UniProt P14416). In words: Displacement of [3H]-raclopride from human D2L receptor expressed in HEK293 cells incubated for 1 hr by liquid scintillation counting method. It is filed as cell-based.
Chain of D(2) dopamine receptor (P14416 whole entry): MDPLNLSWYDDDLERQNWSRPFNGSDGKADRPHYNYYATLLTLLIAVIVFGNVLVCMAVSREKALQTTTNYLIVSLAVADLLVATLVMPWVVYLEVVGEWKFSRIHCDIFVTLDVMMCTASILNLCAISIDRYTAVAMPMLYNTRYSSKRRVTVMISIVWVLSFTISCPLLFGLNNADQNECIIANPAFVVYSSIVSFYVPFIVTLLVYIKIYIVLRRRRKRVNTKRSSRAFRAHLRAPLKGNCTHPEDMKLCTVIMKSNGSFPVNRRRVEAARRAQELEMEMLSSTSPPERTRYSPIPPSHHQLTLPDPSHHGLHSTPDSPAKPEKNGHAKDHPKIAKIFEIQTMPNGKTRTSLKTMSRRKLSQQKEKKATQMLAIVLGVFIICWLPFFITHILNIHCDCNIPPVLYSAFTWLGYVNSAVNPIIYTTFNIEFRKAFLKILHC
The target of series [32] is Sodium-dependent serotonin transporter (Homo sapiens, UniProt P31645). As to the kind of experiment: Displacement of [3H]-imipramine from human serotonin transporter expressed in HEK293 cells membranes incubated for 30 mins by microbeta scintillation counting analysis. It is filed as cell membranes.
Chain of Sodium-dependent serotonin transporter (P31645 whole entry): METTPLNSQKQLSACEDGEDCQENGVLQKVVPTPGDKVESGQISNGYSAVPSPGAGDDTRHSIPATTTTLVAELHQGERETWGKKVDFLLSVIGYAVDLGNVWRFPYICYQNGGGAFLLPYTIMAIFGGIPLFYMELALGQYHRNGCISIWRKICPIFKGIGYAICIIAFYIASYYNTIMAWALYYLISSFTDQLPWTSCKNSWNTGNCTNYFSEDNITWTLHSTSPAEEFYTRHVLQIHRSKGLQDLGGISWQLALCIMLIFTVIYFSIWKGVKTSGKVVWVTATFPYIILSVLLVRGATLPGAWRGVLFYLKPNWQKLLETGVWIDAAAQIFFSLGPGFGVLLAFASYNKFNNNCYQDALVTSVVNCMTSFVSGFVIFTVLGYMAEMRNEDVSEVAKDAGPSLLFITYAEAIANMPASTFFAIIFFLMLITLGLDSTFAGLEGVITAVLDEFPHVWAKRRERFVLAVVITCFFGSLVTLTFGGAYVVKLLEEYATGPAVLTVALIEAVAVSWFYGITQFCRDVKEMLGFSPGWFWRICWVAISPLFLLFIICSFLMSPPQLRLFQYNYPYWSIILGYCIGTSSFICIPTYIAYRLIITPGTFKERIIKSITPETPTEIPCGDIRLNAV
Series [33] concerns the target T3, 5-hydroxytryptamine receptor 2C (Homo sapiens, UniProt P28335).
T3 sequence (P28335 whole entry): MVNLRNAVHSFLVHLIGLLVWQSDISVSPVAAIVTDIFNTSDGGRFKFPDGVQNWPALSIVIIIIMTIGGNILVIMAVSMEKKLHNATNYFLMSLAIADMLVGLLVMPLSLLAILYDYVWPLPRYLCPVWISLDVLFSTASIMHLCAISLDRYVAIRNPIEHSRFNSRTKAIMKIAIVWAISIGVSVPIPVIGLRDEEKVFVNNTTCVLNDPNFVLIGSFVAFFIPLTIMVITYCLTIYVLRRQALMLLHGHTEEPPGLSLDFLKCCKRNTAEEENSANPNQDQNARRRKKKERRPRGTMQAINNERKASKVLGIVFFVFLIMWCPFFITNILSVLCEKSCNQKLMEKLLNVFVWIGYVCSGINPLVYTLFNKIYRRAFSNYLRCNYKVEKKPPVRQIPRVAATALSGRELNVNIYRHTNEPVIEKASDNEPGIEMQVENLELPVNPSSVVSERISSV
As to the kind of experiment: Binding affinity to 5-HT2CR (unknown origin).

In series [34] the target is T2, 5-hydroxytryptamine receptor 1A.
Series [35] deals with 5-hydroxytryptamine receptor 2B (Homo sapiens, UniProt P41595). As to the kind of experiment: Binding affinity to 5-HT2BR (unknown origin).
Chain of 5-hydroxytryptamine receptor 2B (P41595 whole entry): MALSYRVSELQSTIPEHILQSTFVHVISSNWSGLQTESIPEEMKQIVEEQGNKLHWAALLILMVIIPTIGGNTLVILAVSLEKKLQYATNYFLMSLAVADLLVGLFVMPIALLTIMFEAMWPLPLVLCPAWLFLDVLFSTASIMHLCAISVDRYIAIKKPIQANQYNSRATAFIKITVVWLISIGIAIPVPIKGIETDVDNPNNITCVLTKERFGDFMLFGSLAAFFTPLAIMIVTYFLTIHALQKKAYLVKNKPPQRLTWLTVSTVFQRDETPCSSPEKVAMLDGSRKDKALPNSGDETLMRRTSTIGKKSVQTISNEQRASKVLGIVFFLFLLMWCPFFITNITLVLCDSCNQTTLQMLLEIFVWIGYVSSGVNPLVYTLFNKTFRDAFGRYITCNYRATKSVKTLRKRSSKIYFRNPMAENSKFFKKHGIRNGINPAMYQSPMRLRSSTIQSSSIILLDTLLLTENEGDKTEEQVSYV

Structures can show the parent of a compound that is named as a salt. Activity calls are given as the source filed them. No cut-off for these calls is given here.

Chain of 5-hydroxytryptamine receptor 6 (P50406 whole entry): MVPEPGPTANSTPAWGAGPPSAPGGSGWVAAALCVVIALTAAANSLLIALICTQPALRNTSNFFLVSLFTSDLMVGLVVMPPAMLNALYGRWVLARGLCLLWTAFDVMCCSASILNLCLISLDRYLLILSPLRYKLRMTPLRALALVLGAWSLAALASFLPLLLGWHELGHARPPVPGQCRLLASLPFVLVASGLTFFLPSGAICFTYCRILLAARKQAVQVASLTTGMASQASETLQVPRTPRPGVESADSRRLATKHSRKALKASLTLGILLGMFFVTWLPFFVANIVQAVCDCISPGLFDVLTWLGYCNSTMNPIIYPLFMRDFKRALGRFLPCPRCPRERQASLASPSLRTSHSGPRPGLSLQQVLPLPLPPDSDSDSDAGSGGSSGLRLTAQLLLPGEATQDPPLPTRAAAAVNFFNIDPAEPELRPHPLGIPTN

As to `O=C1CC(c2c[nH]c3ccccc23)C(=O)N1CCCCN1CCC(c2c[nH]c3ccc(F)cc23)CC1` (stereo not drawn), the deltaT in series [1] was -0.3 °C; in [2], -2 °C; in series [3], 0.4 °C; in series [4] it was -0.8 °C; in [5], 0.5 °C; in series [6] it was -1 °C. Besides, the deltaT is 0.3 °C in series [8]; 0.2 °C in series [11]; 0.7 °C in series [12]; 0.1 °C in series [13]; -2.2 °C in series [14]; -1.4 °C in series [15]. The deltaT in series [16] is -0.4 °C; in series [17], 0 °C; in [18], 0.2 °C; in series [19] it was 0.3 °C; in [20] it was -0.1 °C; in series [25], -0.5 °C. Moreover, the inhibition at 10 µM in [7] was found to be 96.4%. Besides, the outcome in [9], in series [21] and in series [22] was Active. This compound also gave an inhibition at 0.1 µM in [10] of 45.1%. This compound also displayed an inhibition at 1 µM in [23] of 84.7%. For the same compound, the half-life at 1 µM in series [24] turned out to be 11.5 min.

Consider `O=C1CC(c2c[nH]c3ccc(F)cc23)C(=O)N1CCCCN1CCC(c2c[nH]c3ccccc23)CC1` (stereo not drawn), for which the deltaT in series [1] is -0.6 °C; in [2], -1.8 °C; in series [3], -0.2 °C; in series [4] it was -0.7 °C; in [5], -0.2 °C; in [6] it was -0.7 °C. The deltaT in series [8] is -0.4 °C; in series [26], 0.3 °C; in series [11], -0.2 °C; in [28], 0.1 °C; in [13] it was 0 °C; in series [14], -2.3 °C. Moreover, the deltaT in series [15] was -0.6 °C; in [16] it was -0.2 °C; in series [17], -0.4 °C; in series [18], -0.3 °C; in [19], -0.4 °C; in series [25], 0.1 °C. Also, the Ki in series [27] is 13 nM; in series [29] it was 29 nM; in series [30], 50 nM; in [31], 190 nM; in series [32], 51 nM. For the same compound, the half-life at 1 µM in series [24] was 10 min.

Take `CC[C@@H](CO)NC(=O)[C@@H]1C=C2c3cccc4c3c(cn4C)C[C@H]2N(C)C1` [METHYSERGIDE MALEATE]: the Ki in series [33] is 0.794 nM. That is a sub-nanomolar value.

With `O=c1ccc2ccc(OCCCCN3CCN(c4cccc5sccc45)CC3)cc2[nH]1` [BREXPIPRAZOLE], the Ki was 0.12 nM in series [34], 3.7 nM in [30], 0.398 nM in series [35] and 0.3 nM in series [31].

`COc1ccc2[nH]cc(C3CCN(CCCCN4C(=O)CC(c5c[nH]c6ccc(OC)cc56)C4=O)CC3)c2c1` (stereo not drawn): the deltaT in series [1] was -0.5 °C; in [2] it was -0.9 °C; in series [3], 0.3 °C; in series [4] it was 0.2 °C; in series [5] it was 0.2 °C; in [6] it was -1.2 °C. The deltaT in [8] is 0.2 °C; in [26], 0 °C; in [11] it was 0.4 °C; in [28], 0.8 °C; in series [13] it was 0.6 °C; in series [14], -3.1 °C. Further, the deltaT is -0.5 °C in series [15]; -0.6 °C in [16]; 0.5 °C in [17]; 0.4 °C in series [18]; 0.3 °C in [19]; 0.6 °C in [25]. For the same compound, the inhibition constant (Ki) came out at 2.3 nM in [27]; 427 nM in series [29]; 320 nM in [30]; 217 nM in series [31]; 308 nM in series [32]. The half-life at 1 µM in series [24] was 9.7 min.
